Experimental data: US20030148963A1 (priority 2000, published 2003)
Marks after values point to notes of the source that are not given here.

Legend:
[1] = tested on: TNF-α; assay: Serum TNF-α in S. aureus infected mice (ELISA); format: in vivo, NMRI mice; conditions: six days after 1.4×10^7 CFU S. aureus; 12.5 mg/kg from three days prior; mean ± SEM, n = 6
Description: The levels of TNF.- were determined using sandwich enzyme-linked immunosorbent assays (ELISA) kit from R&D Systems Minneapolis, Minn.).

[2] = tested on: IC-21 cells; assay: Viability and cell number of IC-21 cells; format: cell-based, murine; conditions: IC-21, etoposide-containing medium at concentrations 0.1 and 0.01 mM (so in the source); preliminary experiments, data not shown
Description: (§1) These cells display many typical features of the macrophage phenotype and are therefore a suitable model for studying cytoline and chemokine release during inflammation (16). The cells were maintained in continous culture using RPMI-1640 supplemented with 10% FCS, L-glutamine, and gentamycin. When the cells had grown to about 70% confluency, they were seeded into a 24-well-plate (Nunc) at a concentration of 1×10^5 per well and incubated at 37° C. in 5% CO2 for 24 h. After 24 h the medium was changed into etoposide-containing medium at concentrations 0.1 and 0.01 mM. […] After 24 h of incubation, the cells were washed once with PBS, and reincubated with medium containing different concentrations (1, 10, 100, 1000 ng/ml) of LPS (Difco) and IFN-γ (10, 50, 100 u/nml). The interferon-γ was purified from the supernatants from Chinese hanater ovary (CHO) cells transfected with the murine IFN-γ gene (hybridoma kindly provided by Dr. Morris, Department of Biological Sciences, University of Warwick, Coventry, UK). After 2 and 24 h of incubation the supernatants were collected and stored at −20° C. until analysis.

[3] = tested on: TNF; assay: TNF release by IC-21 macrophage cell line; format: cell-based, murine
Description: Levels of TNF, IL-1b, RANTES, and macrophage inflammatory protein (MIP)-1α were determined using sandwich ELISA from R&D Systems (Minneapolis, Minn.).
as §1, with “h.” for “h. After 24 h the medium was changed into etoposide-containing medium at concentrations 0.1 and 0.01 mM.”

[4] = tested on: IFN-γ; assay: Serum IFN-γ in CII immunized mice (ELISA); format: in vivo, B10.QxDBA/1 female mice; conditions: serum at end of experiment, mean ± SEM
Description: For quantification of serfu CII antibodies, 96-well plates (Nunc, Roskilde, Denmark) were coated overnight at 4° C. with 10 μg/ml of native CII. Standards and samples were diluted in 0.5% BSA-PBS. Biotinylated F(ab/)2 fragments of goat anti-mouse IgG (Jackson ImmunoResearch Laboratories, West Grove, Pa.) was used as secondary antibody. Development was performed using horseradish peroxidase 0.5 μg/ml and 2.5 mg of the enzyme substrate 2,2-azino-bis-(3-ethylbenzothiazoline sulfonic acid) (Sigma) per mal in citrate buffer (pH 4.2), containing 0.0075% H2O2. The absorbance was measured at 405 nm in a SPECTRAmax spectrophotometer (Molecular Devices, Calif.). IFN-γ levels in sera were quantified with an ELISA system previously described (13). Ninety-six well plates (Nunc) were coated with 2 μg/ml of rat anti-mouse IFN-γ mab (Pharmingen, San Diego, Calif.). Sera, recombinant IFN-γ (Genzyme, Cambridge, Mass.), biotinylated antibodies were all diluted in 0.05 M Tris pH 7.4+0.015 M NaCl. A biotinylated anti mouse IFN-γ antibody (2 μg/ml) (Pharmigen) was used as secondary antibody. After incubation with extravidin alkaline phosphatase 0.5 ?g/ml and alkaline phosphatase substrate 1 mg/ml (Sigma) the absorbance was measured at 405 nm. Interleukin 6 (IL-6) levels in serum and supernatants were measured by a bioassay using cell line B13.29, subclone B9, which is dependent on IL-6 for growth. […]

[5] = tested on: T cell mediated DTH reaction; assay: Delayed type hypersensitivity to oxazolone (ear swelling); format: in vivo, mice; conditions: 12.5 mg/kg two days, the day before and 1 h before challenge; 24 h; similar to controls
[6] = tested on: IL-6; assay: Serum IL-6 in S. aureus infected mice (B9 bioassay); format: in vivo, NMRI mice; conditions: six days after 1.4×10^7 CFU S. aureus; 12.5 mg/kg from three days prior; mean ± SEM, n = 6
Description: The cell line B 13,29, subclone B9, which is dependent on IL-6 for its growth, was used for IL-6 determinations. The cells were seeded into microtiter plates at a concentration of 5000 cells/well and samples in different dilutions were added. One μCi of (3H) TdR (Amersham) was added after 68 h of culture, and the cells were harvested 4 h later. The results were compared with recombinant IL-6 standard (Genzyme, Cambridge, Mass.). The B9 cells were previously shown not to react with several recombinant cytolines including IL.-1, IL.-, L-2, IL-3, IL-5, granulocyte/macrophage CS17, TNF.-, and IFN.-, There was only a weak reactivity with IL-4 [14].

COc1cc([C@@H]2c3cc4c(cc3[C@@H](O[C@@H]3O[C@@H]5CO[C@@H](C)O[C@H]5[C@H](O)[C@H]3O)[C@H]3COC(=O)[C@H]23)OCO4)cc(OC)c1O [Etoposide]
Serum TNF-α [1]: 30 ± 12 pg/mL
Cell viability or total cell numbers [2]: not to influence the cell viability or total cell numbers
Levels of TNF in supernatants ([3]; etoposide 0.01 μM 24 h, then IFN-γ 10 u/ml 24 h): 52 pg/mL
Levels of TNF in supernatants ([3]; etoposide 0.01 μM 24 h, then IFN-γ 50 u/ml 24 h): 56 pg/mL
Levels of TNF in supernatants ([3]; etoposide 0.01 μM 24 h, then IFN-γ 100 u/ml 24 h): 65 pg/mL
Levels of TNF in supernatants ([3]; etoposide 0.01 μM 24 h, then LPS 0 ng/ml 24 h): 66 pg/mL
Levels of TNF in supernatants ([3]; etoposide 0.01 μM 24 h, then LPS 1 ng/ml 24 h): 207 pg/mL
Levels of TNF in supernatants ([3]; etoposide 0.01 μM 24 h, then LPS 10 ng/ml 24 h): 3050 pg/mL
Levels of TNF in supernatants ([3]; etoposide 0.01 μM 24 h, then LPS 100 ng/ml 24 h): 11900 pg/mL
Levels of TNF in supernatants ([3]; etoposide 0.01 μM 24 h, then LPS 1000 ng/ml 24 h): 12375 pg/mL
Levels of TNF in supernatants ([3]; etoposide 0.1 μM 24 h, then IFN-γ 10 u/ml 24 h): 20 pg/mL
Levels of TNF in supernatants ([3]; etoposide 0.1 μM 24 h, then IFN-γ 50 u/ml 24 h): 32 pg/mL
Levels of TNF in supernatants ([3]; etoposide 0.1 μM 24 h, then IFN-γ 100 u/ml 24 h): 34 pg/mL
Levels of TNF in supernatants ([3]; etoposide 0.1 μM 24 h, then LPS 0 ng/ml 24 h): 24 pg/mL
Levels of TNF in supernatants ([3]; etoposide 0.1 μM 24 h, then LPS 1 ng/ml 24 h): 72 pg/mL
Levels of TNF in supernatants ([3]; etoposide 0.1 μM 24 h, then LPS 10 ng/ml 24 h): 1125 pg/mL
Levels of TNF in supernatants ([3]; etoposide 0.1 μM 24 h, then LPS 100 ng/ml 24 h): 2325 pg/mL
Levels of TNF in supernatants ([3]; etoposide 0.1 μM 24 h, then LPS 1000 ng/ml 24 h): 3650 pg/mL
IFN-g ([4]; Etoposide-pretreated): 1848 ± 248^c u/ml
IFN-g ([4]; Etoposide-treated (from day 40)): 2094 ± 199^b u/ml
DTH reaction to oxazolone (ear thickness increase) [5]: 32±6 ×10^−3 cm
Serum IL-6 [6]: 11.927 ± 4.610^b pg/ml
